Where a name gives a salt, the structure may show the parent alone. Where only a bound is given, the exact number is not on record here.

The values that follow come from patent US6855843B2, “Inhibitors of α4 mediated cell adhesion” (Tanabe Seiyaku Co., Ltd., priority 1998, dated 2005).

Data set [1] has as its target T1, α4β7 (adhesion of RPMI cells to CS-1) (Homo sapiens, UniProt P13612+P26010).
T1 construct: endogenous in cells
T1 sequence (P13612 34-1032): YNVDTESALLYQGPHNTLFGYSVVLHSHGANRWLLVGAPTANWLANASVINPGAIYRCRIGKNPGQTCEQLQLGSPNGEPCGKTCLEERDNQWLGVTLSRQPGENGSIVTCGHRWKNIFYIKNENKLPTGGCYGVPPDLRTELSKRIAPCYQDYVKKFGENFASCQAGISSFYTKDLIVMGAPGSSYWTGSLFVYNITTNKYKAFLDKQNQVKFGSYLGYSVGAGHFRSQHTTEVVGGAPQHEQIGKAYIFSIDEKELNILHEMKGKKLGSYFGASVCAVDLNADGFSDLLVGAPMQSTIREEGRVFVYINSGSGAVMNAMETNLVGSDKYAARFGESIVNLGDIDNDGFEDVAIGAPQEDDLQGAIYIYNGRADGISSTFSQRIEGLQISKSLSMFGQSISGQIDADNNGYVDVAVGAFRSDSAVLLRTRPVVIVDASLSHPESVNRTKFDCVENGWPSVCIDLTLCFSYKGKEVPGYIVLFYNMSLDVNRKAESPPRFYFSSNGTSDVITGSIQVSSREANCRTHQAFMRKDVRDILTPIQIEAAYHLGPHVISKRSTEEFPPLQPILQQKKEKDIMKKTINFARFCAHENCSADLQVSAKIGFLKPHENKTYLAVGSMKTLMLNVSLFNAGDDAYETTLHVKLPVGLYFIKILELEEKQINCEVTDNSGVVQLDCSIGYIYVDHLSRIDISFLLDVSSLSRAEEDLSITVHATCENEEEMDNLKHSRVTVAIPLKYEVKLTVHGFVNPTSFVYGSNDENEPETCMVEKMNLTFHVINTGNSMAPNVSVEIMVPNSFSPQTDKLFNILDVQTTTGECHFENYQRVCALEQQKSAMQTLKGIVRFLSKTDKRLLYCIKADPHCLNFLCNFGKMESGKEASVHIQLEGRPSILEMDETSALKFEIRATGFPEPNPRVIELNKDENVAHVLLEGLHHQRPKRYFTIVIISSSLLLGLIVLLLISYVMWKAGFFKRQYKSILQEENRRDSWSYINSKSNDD
T1 sequence (P26010 20-798): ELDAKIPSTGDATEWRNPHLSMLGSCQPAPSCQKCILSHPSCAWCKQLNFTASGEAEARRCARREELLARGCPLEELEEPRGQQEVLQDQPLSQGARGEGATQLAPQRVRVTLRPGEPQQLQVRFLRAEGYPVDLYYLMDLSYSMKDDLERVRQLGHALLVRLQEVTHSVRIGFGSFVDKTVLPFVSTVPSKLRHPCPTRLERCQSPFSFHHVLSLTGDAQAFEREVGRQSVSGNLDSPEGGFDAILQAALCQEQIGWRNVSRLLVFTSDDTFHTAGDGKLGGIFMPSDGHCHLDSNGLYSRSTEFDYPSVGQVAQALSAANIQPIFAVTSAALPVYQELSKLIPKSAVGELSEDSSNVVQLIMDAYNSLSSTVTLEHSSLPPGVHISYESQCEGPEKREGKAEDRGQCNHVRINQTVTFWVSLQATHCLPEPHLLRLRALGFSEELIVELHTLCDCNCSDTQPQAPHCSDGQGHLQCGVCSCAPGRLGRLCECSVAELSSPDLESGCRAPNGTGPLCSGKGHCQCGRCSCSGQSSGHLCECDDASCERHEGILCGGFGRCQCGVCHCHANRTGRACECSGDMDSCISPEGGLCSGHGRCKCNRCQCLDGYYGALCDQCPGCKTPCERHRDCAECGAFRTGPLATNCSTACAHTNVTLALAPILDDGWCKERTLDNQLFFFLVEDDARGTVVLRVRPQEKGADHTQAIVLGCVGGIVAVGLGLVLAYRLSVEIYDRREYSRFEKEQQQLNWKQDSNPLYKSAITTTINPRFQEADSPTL
Put plainly: RPMI-CS-1 cell adhesion assay. The class given is cell-based. The note with it: adhesion of RPMI B-cell line (expresses α4β7) to CS-1 peptide coated microwells; read-out: RPMI-CS-1 IC50 value range.

With `COc1cccc(OC)c1-c1ccc(C[C@H](NC(=O)c2c(Cl)cc(NS(=O)(=O)c3cccs3)cc2Cl)C(=O)O)cc1` [Example 193, N-[2,6-Dichloro-4-[(2-thienylsulfonyl)amino]benzoyl]-4-(2,6-dimethoxyphenyl)-L-phenylalanine], the melting point (usually the temperature, or range, at which the solid turns liquid) was in the range of 141 to 142 °C. For the same molecule, in data set [1], the IC50 – broadly, the concentration at which inhibition is half-maximal – was below 300 nM. Regarding `COc1cccc(OC)c1-c1ccc(C[C@H](NC(=O)c2c(Cl)cc(NC(N)=O)cc2Cl)C(=O)O)cc1` [Example 204], the melting point lay within 220 to 221 °C. Besides, in data set [1], the IC50 is below 300 nM.

On to `CCOC(=O)[C@H](Cc1ccc(-c2c(OC)cc(CN3CCCCC3)cc2OC)cc1)NC(=O)c1c(F)cccc1F` [Example 354], for which the melting point amounted to 150 °C. In addition, the IC50 in data set [1] was below 300 nM. On the same counts, the results for `COc1cccc(OCCO)c1-c1ccc(C[C@H](NC(=O)c2c(Cl)cccc2Cl)C(=O)O)cc1` [Example 227, N-(2,6-Dichlorobenzoyl)-4-[6-methoxy-2-(2-hydroxyethoxy)phenyl]-L-phenylalanine] are 158 to 159 °C and below 300 nM. On to `CCOC(=O)Nc1cc(Cl)c(C(=O)N[C@@H](Cc2ccc(-c3c(OC)cccc3OC)cc2)C(=O)O)c(Cl)c1` [Example 200], for which the melting point lay in the range of 185 to 187 °C. For the same molecule, in data set [1], the IC50 is below 300 nM. As to `CCC(O)c1cc(C[C@H](NC(=O)c2c(Cl)cccc2Cl)C(=O)O)ccc1-c1ccccc1OC` (some centres unmarked) [Example 341], the melting point fell in the range of 117 to 119 °C. In addition, the IC50 in data set [1] is below 300 nM. In the same order, the values of `COc1cccc(OC)c1-c1ccc(C[C@H](NC(=O)c2c(Cl)cccc2Cl)C(=O)O)cc1NS(C)(=O)=O` [Example 298] are 118 to 120 °C and below 300 nM. `COc1ccccc1-c1ccc(C[C@H](NC(=O)c2c(Cl)cccc2Cl)C(=O)O)cc1Cl` [Example 336, N-(2,6-Dichlorobenzoyl)-3-chloro-4-(2-methoxyphenyl)-L-phenylalanine] showed a melting point of 131 °C. The IC50 in data set [1] was below 300 nM.

On to `COc1c(C)c(OC)c(-c2ccc(C[C@H](NC(=O)c3c(Cl)cccc3Cl)C(=O)O)cc2)c(OC)c1C` [Example 147], for which the melting point lay within 114 to 115 °C. Further, in data set [1], the IC50 was below 300 nM. In the same order, the values of `COc1cc(C)cc(OC)c1-c1ccc(C[C@H](NC(=O)c2c(Cl)cccc2Cl)C(=O)O)cc1` [Example 148] are 233 to 234 °C and below 300 nM.

In turn, `O=C(N[C@@H](Cc1ccc(-c2c(OCC(F)(F)F)cccc2OCC(F)(F)F)cc1)C(=O)O)c1c(Cl)cccc1Cl` [Example 230] came in with a melting point of 93 to 94 °C. For the same molecule, the IC50 in data set [1] was in the range of 300 to 1000 nM.

On to `COc1ccccc1-c1ccc(C[C@H](NC(=O)c2ccc(N(C)S(C)(=O)=O)cc2Cl)C(=O)O)cc1`, for which the melting point turned out to be 79.3 °C. `COc1cc(CN2CCSCC2)cc(OC)c1-c1ccc(C[C@H](NC(=O)c2c(Cl)cccc2Cl)C(=O)O)cc1` [Example 253, N-(2,6-dichlorobenzoyl)-4-[2,6-dimethoxy-4-(thiomorpholinomethyl)phenyl]-L-phenylalanine]: the melting point was 86 to 89 °C.

The molecule `CNc1ccc(C(=O)N[C@@H](Cc2ccc(-c3ccccc3OC)cc2)C(=O)O)c(Cl)c1` had a melting point of 82.8 °C. As to `COc1cccc(OC)c1-c1ccc(C[C@H](NC(=O)c2c(Cl)cc(-c3ccn[nH]3)cc2Cl)C(=O)O)cc1` (as salt: TFA) [Example 304, N-[4-(5-Pyrazolyl)-2,6-dichlorobenzoyl)-4-(2,6-dimethoxyphenyl)-L-phenylalanine], the melting point turned out to be 156 °C. Still for that read-out and setting: the same measure for `CCOC(=O)[C@H](Cc1ccc(-c2c(OC)cc(CN(C)C)cc2OC)cc1)NC(=O)c1c(Cl)cccc1Cl` (as salt: hydrochloride) [Example 259, N-(2,6-Dichlorobenzoyl)-4-[2,6-dimethoxy-4-[(N,N-dimethylamino)methyl]phenyl]-L-phenylalanine ethyl ester hydrochloride]: 146.5 °C; for `CCOC(=O)[C@H](Cc1ccc(-c2c(OC)cc(CN3CCN(C)CC3)cc2OC)cc1)NC(=O)c1c(F)cccc1F` (as salt: HCl) [Example 356]: 226 °C.

Molecule `COc1cccc(O)c1-c1ccc(C[C@H](NC(=O)c2c(Cl)cccc2Cl)C(=O)O)cc1` [Example 359, N-(2,6-Dichlorobenzoyl)-4-(6-methoxy-2-hydroxyphenyl)-L-phenylalanine] came in with a melting point of 224.4 °C. In turn, `CCOC(=O)[C@H](Cc1ccc(-c2c(OC)cc(CN3CCOCC3)cc2OC)cc1)NC(=O)c1c(Cl)cccc1Cl.Cl` had a melting point of 177.5 °C. In turn, `Cc1noc(C)c1-c1ccc(C[C@H](NC(=O)c2c(Cl)cccc2Cl)C(=O)O)cc1` [Example 330, N-(2,6-Dichlorobenzoyl)-4-(3,5-dimethyl-4-isoxazolyl)-L-phenylalanine] showed a melting point of 119 °C. For `CCOc1cccc(OC)c1-c1ccc(C[C@H](NC(=O)c2c(Cl)cccc2Cl)C(=O)O)cc1` [Example 14, N-(2,6-Dichlorobenzoyl)-4-(2-ethoxy-6-methoxyphenyl)-L-phenylalanine], in data set [1], the IC50 is below 300 nM. Still for that read-out and setting: the same measure for `COc1cccc(OC)c1-c1ccc(C[C@H](NC(=O)c2c(Cl)cc(NS(=O)(=O)C(F)(F)F)cc2Cl)C(=O)O)cc1` [Example 184, N-[2,6-Dichloro-4-[(trifluoromethanesulfonyl)amino]benzoyl]-4-(2,6-dimethoxyphenyl)-L-phenylalanine]: below 300 nM; for `COc1ccc(Br)c(OC)c1-c1ccc(C[C@H](NC(=O)c2c(Cl)cccc2Cl)C(=O)O)cc1` [Example 322, N-(2,6-Dichlorobenzoyl)-4-(2,6-dimethoxy-3-bromophenyl)-L-phenylalanine]: below 300 nM; for `COc1ccccc1-c1ccc(C[C@H](NC(=O)c2ccc(N)cc2Cl)C(=O)O)cc1` [Example 63, N-(4-Amino-2-chlorobenzoyl)-4-(2-methoxyphenyl)-L-phenylalanine]: 300 to 1000 nM. Same read-out and setting: to `COCOc1ccc2c(c1-c1ccc(C[C@H](NC(=O)c3c(Cl)cccc3Cl)C(=O)O)cc1)OCO2` [Example 235, N-(2,6-Dichlorobenzoyl)-4-[2,3-methylenedioxy-6-(methoxymethoxy)phenyl]-L-phenylalanine] belongs below 300 nM; to `COc1ccccc1-c1ccc(C[C@H](NC(=O)c2cnccn2)C(=O)O)cc1` [Example 103], above 5000 nM; to `COc1cccc(OC)c1-c1ccc(C[C@H](NC(=O)c2c(C)cccc2Cl)C(=O)O)cc1` [Example 277], below 300 nM. Consider `COc1ccccc1-c1ccc(C[C@H](NC(=O)c2ccc(C(=O)O)cc2Cl)C(=O)O)cc1` [Example 177, N-[2-Chloro-4-carboxybenzoyl]-4-(2-methoxyphenyl)-L-phenylalanine], for which, in data set [1], the IC50 is below 300 nM. Regarding `CCCOc1ccc(C(=O)N[C@@H](Cc2ccc(-c3c(OC)cccc3OC)cc2)C(=O)O)c(Cl)c1` [Example 286], in data set [1], the IC50 was below 300 nM. Regarding `COc1cccc(OC)c1-c1ccc(C[C@H](NC(=O)c2c(Cl)cccc2Cl)C(=O)O)cc1C(C)O` (some centres unmarked) [Example 131], the IC50 in data set [1] is below 300 nM.
